Legend:
Leishmania mexicana [1] = assay: Inhibition of Leishmania mexicana cysteine protease CBP2.8deltaCTE at 20 ug/mL
Leishmania mexicana [2] = assay: Inhibition of Leishmania mexicana cysteine protease CBP2.8deltaCTE at 2 ug/mL

Row | inhibition (Leishmania mexicana [1]) [%] | inhibition (Leishmania mexicana [2]) [%] | Structure (SMILES)
1 | 97 | 71.3 | O=C(N[C@H](/C=C/S(=O)(=O)c1ccccc1)Cc1ccccc1)[C@H](Cc1ccccc1)NC(=O)N1CCOCC1
2 | 15.1 | 0 | CC(C)(C)OC(=O)N[C@@H](Cc1ccccc1)/C(SCCc1ccccc1)=C(/F)S(=O)(=O)c1ccccc1
3 | 38.7 | 1.1 | CC(C)(C)OC(=O)N[C@@H](Cc1ccccc1)/C(SCCc1ccccc1)=C(\F)S(=O)(=O)c1ccccc1

Reference: ChEMBL document CHEMBL1140565, “Dipeptidyl alpha-fluorovinyl Michael acceptors: synthesis and activity against cysteine proteases” (Bioorg Med Chem Lett, 2007)
